Laboratory results published in patent US5232937A, “Derivatives of N-phenylbenzamide with anti-ulcer and anti-allergy” (Rotta Research Laboratorium SpA., priority 1989, dated 1993).
Like-named read-outs stand apart in the source and are kept apart here.

Experiments:
[1] = system: gastric acid secretion induced by histamine; assay: Anti-secretive activity, gastric acid secretion stimulated with histamine (Lai method, modified); type: in vivo; settings: Rattus norvegicus, iv, 1 h; I.V.; rats; histamine 2.3 mg/kg/h; read-out: ED50, antagonistic activity towards secretion induced by histamine
Method: (§1) The anti-secretive activities were determined in rats with the use of male animals weighing approximately 200 g, anaesthetised with urethane. Gastric secretion was stimulated with pentagastrin, histamine or cabachol.
(§2) After tracheotomy, cannulae were inserted in the aesophagus and the duodenum. These were perfused with a tepid solution (37° C.) which was passed through the stomach at a constant flow rate of 1 ml/minute by means of a peristaltic pump. After stabilisation for 20 minutes, the stimulant, dissolved in a physiological solution, was perfused for 120 minutes at the dose indicated in Table 1 in a volume of 0.95 ml/hour. After 60 minutes of perfusion (base stimulation) the product under test was administered intravenously (I.V.) in a bolus and the perfusion of the stimulant was continued for a further 60 minutes. The acid secretion was recorded continuously as a function of time.
(§3) The activity of the product was evaluated as a percentage reduction in the acid secreted after the administration of the product against the base acidity measured in the first 60 minutes of collection which was in the presence of the stimulant alone.

[2] = system: gastric acid secretion induced by carbachol; assay: Anti-secretive activity, gastric acid secretion stimulated with carbachol (Lai method, modified); type: in vivo; settings: Rattus norvegicus, iv, 1 h; I.V.; rats; carbachol 30 mcg/kg/h; read-out: ED50, antagonistic activity towards secretion induced by carbachol
Method: as §1, §2, §3

[3] = system: gastric acid secretion induced by pentagastrin; assay: Anti-secretive activity, gastric acid secretion stimulated with pentagastrin (Lai method, modified); type: in vivo; settings: Rattus norvegicus, iv, 1 h; I.V.; rats; pentagastrin 30 mcg/kg/h; read-out: ED50, antagonistic activity towards secretion induced by pentagastrin
Method: as §1, §2, §3

[4] = system: passive cutaneous anaphylaxis reaction; assay: Passive cutaneous anaphylaxis (PCA) in rats, modified Goose and Blair method; type: in vivo, rat; settings: for ED50: Rattus norvegicus, iv, 0.5 h, I.V., rats
Method: Male rats weighing approximately 400 g were treated with 10 mg/kg of grade V egg albumen dissolved in 1 ml of a physiological solution by I.M. and intraperitoneal (I.P.) routes. With one mg of Freund's complete adjuvent solution. 13 days after sensitisation, the animals were killed under […] anaesthesia, the blood was taken and the serum was kept at -70° C. after its titre of IgE specific to egg albumen had been assayed. On the basis of type, 2 intradermal injections (i.d.) of 0.1 ml of the antiserum, titrated and suitably diluted were given into the shaved backs of 200 g male rats at a time -24h.
The products under test were administered I.V. 20 minutes of the antigen. The animals were killed 30 minutes after the challenge, the skin of the back was turned inside out and the larger and smaller diameters of each blemish were measured. In practice the response of each animal was evaluated as the average of four diameters.

[5] = system: ulcer caused by stress; assay: Cytoprotective activity, ulcer caused by stress (containment); type: in vivo; settings: Rattus norvegicus, im, 5 h, read-out: ED50, cytoprotective activity, ulcer caused by stress
Method: (§4) 1 if the length of the necrotic area is 2 mm
(§5) 2 if the length of the necrotic area is between 2 and 4 mm
(§6) 3 if the length of the necrotic area is 4 mm
(§7) 5 if the length of the area is 4 mm with a perforated ulcer.
(§8) A lesion index is then obtained by adding the number of lesions multiplied by their respective points.
Male rats weighing approximately 150 g which had been starved for 24 hours were imprisoned in individual cylindrical cages and immersed up to the xiphoid process in cool water kept thermostatically at 19° C. The compounds were administrated intramuscularly (I.M.) 15 minutes before the start of the test.
5 hours after the start of their containment, the animals were killed, their stomachs were removed and a quantitative evaluation was then carried out as described above.

[6] = Toxicity (LD50 IV in mice); settings: mouse, in vivo
[7] = system: ulcer caused by 25% NaCl; assay: Cytoprotective activity, ulcer caused by 25% NaCl; type: in vivo; settings: Rattus norvegicus, iv, 1 h, read-out: ED50, cytoprotective activity, ulcer caused by 25% NaCl
Method: (§9) The drugs under test were administered intravenously 15 minutes before the irritant. […] It consists of the assignment of arbitrary points according to the number and gravity of the lesions in accordance with the following criterion:
as §4, §5, §6, §7, §8

[8] = system: ulcer caused by ethanol; assay: Cytoprotective activity, ulcer caused by ethanol; type: in vivo, rat; settings: for ED50: Rattus norvegicus, iv, 1 h, read-out: ED50, cytoprotective activity, ulcer caused by ethanol; for protective activity (in words): ulcer models of Table 2 (ethanol, 25% NaCl, stress)
Method: as §9, §4, §5, §6, §7, §8

[9] = system: actively-sensitised guinea-pig lung fragments (histamine release); assay: Anaphylaxis in vitro, histamine release from actively sensitised guinea-pig lung fragments (modified Broklehurst method); type: cell-based; settings: for inhibition at 10 µg/mL / inhibition at 30 µg/mL / inhibition at 100 µg/mL / inhibition at 300 µg/mL / EC50: Cavia porcellus; for inhibition at 10 µg/mL: 10 mcg/ml; for inhibition at 10 µg/mL / inhibition at 30 µg/mL / inhibition at 100 µg/mL / inhibition at 300 µg/mL: read-out: % inhibition of anaphylactic histamine release; for inhibition at 30 µg/mL: 30 mcg/ml; for inhibition at 100 µg/mL: 100 mcg/ml; for inhibition at 300 µg/mL: 300 mcg/ml; for EC50: guinea-pig lung fragments in vitro, read-out: EC50, anaphylactic histamine release; for activity in the in vitro anaphylaxis model relative to DSCG: compared with DSCG
Method: Male guinea pigs weighing approximately 250 g were sensitised with […] of grade V egg albumen dissolved in 1 ml of physiological solution and administered (1 ml/kg) I.P. and subcutaneously (S.C.). After three weeks the animals were killed under ethereal anaesthesia by bleeding. The lungs were removed and immersed in Tyrode solution at 4° C. Homogeneous fragments approximately 2 mm long were cut and divided into test pieces containing approximately 400 mg of tissue and […] of Tyrode. The samples were preincubated at 37° C. for 15 minutes with the compounds under test dissolved in 0.1 of Tyrode and incubated for a further 20 minutes at 37° C. The reaction was stopped by cooling in ice.
0.8 ml of the supernatant liquid were treated with perchloric acid and centrifuged to remove the proteins. The supernatant liquid was then made alkaline with 5N NaOH, the histamine was extracted with n-butanol and, after suitable dilution with n-heptane, was extracted again in dilute HCl.
O-phthalaldehyde was added to the samples and their fluorescence was measured with a fluorimeter at 450 mu after activation at 360 mu.
The histamine concentration in the samples was obtained from a standard straight-line graph in the range 50-800 ng/ml of histamine.

[10] = I.M., rats, 15 minutes before the test
[11] = I.V., rats, 15 minutes before NaCl
[12] = I.V., rats, 15 minutes before ethanol

Compound: N#Cc1ccc(C(=O)Nc2cc(C(=O)O)cc(C(=O)O)c2)cc1 [Compound 1, N-(3,5-dicarboxy)phenyl-4-cyanobenzamide]
- ED50 [1]: 47 mg/kg
- ED50 [2]: 33 mg/kg
- ED50 [3]: 50 mg/kg
- % inhibition of passive cutaneous anaphylaxis ([4]; 50 mg/kg I.V.): 20.0%
- % inhibition of passive cutaneous anaphylaxis ([4]; 100 mg/kg I.V.): 37.2%
- % inhibition of passive cutaneous anaphylaxis ([4]; 150 mg/kg I.V.): 58.2%
- ED50 [4]: 128 mg/kg
- ED50 [5, 10]: 135 mg/kg
- LD50 ([6]; IV in mice): 2400 mg/kg
- selectivity ratio ([6]; LD50 IV mice versus ED50 of pentagastrin, read-out: toxic dose relative to the antacid-secretion dose): ~50
- ED50 [7, 11]: 42 mg/kg
- ED50 [8, 12]: 45 mg/kg

Compound: O=C(O)c1cc(NC(=O)c2ccc([N+](=O)[O-])cc2)cc(C(=O)O)c1 [Compound 2, N-(3,5-dicarboxy)phenyl-4-nitrobenzamide]
- ED50 [1]: 109 mg/kg
- ED50 [2]: 68 mg/kg
- ED50 [3]: 91 mg/kg

Compound: O=C(O)c1cc(NC(=O)c2ccc(Cl)cc2)cc(C(=O)O)c1 [Compound 3, N-(3,5-dicarboxy)phenyl-4-chlorobenzamide]
- ED50 [1]: 108 mg/kg
- ED50 [2]: 104 mg/kg
- ED50 [3]: 115 mg/kg

Compound: Cc1ccc(C(=O)Nc2cc(C(=O)O)cc(C(=O)O)c2)cc1 [Compound 4, N-(3,5-dicarboxy)phenyl-4-methylbenzamide]
- ED50 [1]: > 250 mg/kg
- ED50 [2]: 216 mg/kg
- ED50 [3]: 189 mg/kg

Compound: COc1ccc(C(=O)Nc2cc(C(=O)O)cc(C(=O)O)c2)cc1 [Compound 5, N-(3,5-dicarboxy)phenyl-4-methoxybenzamide]
- ED50 [1]: 240 mg/kg
- ED50 [2]: > 250 mg/kg
- ED50 [3]: 223 mg/kg

Compound: O=C(O)c1cc(NC(=O)c2ccc([N+](=O)[O-])c(O)c2)cc(C(=O)O)c1 [Compound 6, N-(3,5-dicarboxy)phenyl-3-hydroxy-4-nitrobenzamide]
- ED50 [1]: 205 mg/kg
- ED50 [2]: 186 mg/kg
- ED50 [3]: 210 mg/kg

Compound: O=C(O)c1cc(NC(=O)c2ccc(O)c(O)c2)cc(C(=O)O)c1 [Compound 7, N-(3,5-dicarboxy)phenyl-3,4-di-hydroxybenzamide]
- ED50 [1]: 102 mg/kg
- ED50 [2]: 90 mg/kg
- ED50 [3]: 97 mg/kg

Compound: COc1ccc(C(=O)Nc2cc(C(=O)O)cc(C(=O)O)c2)cc1OC [Compound 8, N-(3,5-dicarboxy)phenyl-3,4-dimethoxybenzamide]
- ED50 [1]: 222 mg/kg
- ED50 [2]: 188 mg/kg
- ED50 [3]: 208 mg/kg

Compound: COc1cc(C(=O)Nc2cc(C(=O)O)cc(C(=O)O)c2)ccc1[N+](=O)[O-] [Compound 9, N-(3,5-dicarboxy)phenyl-3-methoxy-4-nitrobenzamide]
- ED50 [1]: 100 mg/kg
- ED50 [2]: 88 mg/kg
- ED50 [3]: 88 mg/kg

Compound: N#Cc1ccc(C(=O)Nc2ccc(-c3nn[nH]n3)cc2)cc1 [Compound 10, N-°4-(5-tetrazolyl)e-phenyl-4-cyanobenzamide]
- ED50 [1]: 45 mg/kg
- ED50 [2]: 39 mg/kg
- ED50 [3]: 42 mg/kg

Compound: O=C(O)c1cc(NC(=O)c2ccc(-c3nn[nH]n3)cc2)cc(C(=O)O)c1 [Compound 11, N-(3,5-dicarboxy)phenyl-4-(5-tetrazolyl)-benzamide]
- ED50 [1]: 41 mg/kg
- ED50 [2]: 50 mg/kg
- ED50 [3]: 33 mg/kg
- inhibition at 10 µg/mL [9]: 11.8%
- inhibition at 30 µg/mL [9]: 27.2%
- inhibition at 100 µg/mL [9]: 42.4%
- inhibition at 300 µg/mL [9]: 53.3%
- EC50 [9]: 216 µg/mL
- activity in the in vitro anaphylaxis model relative to DSCG [9]: 10-15 times
- % inhibition of passive cutaneous anaphylaxis ([4]; 50 mg/kg I.V.): 53.3%
- % inhibition of passive cutaneous anaphylaxis ([4]; 100 mg/kg I.V.): 66%
- % inhibition of passive cutaneous anaphylaxis ([4]; 150 mg/kg I.V.): 74.7%
- ED50 [4]: 42.6 mg/kg
- ED50 [5, 10]: 65 mg/kg
- ED50 [7, 11]: 29 mg/kg
- ED50 [8, 12]: 7 mg/kg

Compound: O=C(Nc1ccc(-c2nn[nH]n2)cc1)c1ccc(-c2nn[nH]n2)cc1 [Compound 12, N-°4-(5-tetrazolyl)phenyl-4-(5-tetrazolyl)-benzamide]
- ED50 [1]: 32 mg/kg
- ED50 [2]: 30 mg/kg
- ED50 [3]: 26 mg/kg
- inhibition at 10 µg/mL [9]: 22.8%
- inhibition at 30 µg/mL [9]: 28.4%
- inhibition at 100 µg/mL [9]: 56.2%
- inhibition at 300 µg/mL [9]: 65.4%
- EC50 [9]: 93 µg/mL
- activity in the in vitro anaphylaxis model relative to DSCG [9]: 10-15 times
- % inhibition of passive cutaneous anaphylaxis ([4]; 10 mg/kg I.V.): 39.0%
- % inhibition of passive cutaneous anaphylaxis ([4]; 30 mg/kg I.V.): 45.3%
- % inhibition of passive cutaneous anaphylaxis ([4]; 100 mg/kg I.V.): 67.6%
- ED50 [4]: 30.9 mg/kg
- ED50 [5]: 56 mg/kg
- ED50 [7]: 12 mg/kg
- ED50 [8]: 3 mg/kg

Compound: N#Cc1ccc(C(=O)Nc2cc(C(N)=O)cc(C(=O)O)c2)cc1 [Compound 13, N-(3-carboxy-5-carbamoyl)phenyl-4-cyanobenzamide]
- ED50 [1]: 73 mg/kg
- ED50 [2]: 65 mg/kg
- ED50 [3]: 68 mg/kg

Compound: NC(=O)c1cc(NC(=O)c2ccc(-c3nn[nH]n3)cc2)cc(C(=O)O)c1 [Compound 14, N-(3-carboxy-5-carbamoyl)phenyl-4-(5-tetrazolyl)-benzamide]
- ED50 [1]: 48 mg/kg
- ED50 [2]: 48 mg/kg
- ED50 [3]: 51 mg/kg

Compound: O=C(O)c1cc(=O)c2c(OCC(O)COc3cccc4oc(C(=O)O)cc(=O)c34)cccc2o1 [DSCG, Di-sodium chromoglycate, reference compound]
- dose relation of activity (in words) ([9]; 10-300 mcg/ml): poorly dose-related
- inhibitory effect on the release of histamine, all doses tested ([9]; 10-300 mcg/ml): ≤ 50%
- inhibition at 10 µg/mL [9]: 6.8%
- inhibition at 30 µg/mL [9]: 19.7%
- inhibition at 100 µg/mL [9]: 17.8%
- inhibition at 300 µg/mL [9]: 41.2%
- EC50 [9]: 1460 µg/mL
- % inhibition of passive cutaneous anaphylaxis ([4]; 50 mg/kg I.V.): 16.0%
- % inhibition of passive cutaneous anaphylaxis ([4]; 100 mg/kg I.V.): 22.1%
- % inhibition of passive cutaneous anaphylaxis ([4]; 150 mg/kg I.V.): 57.5%
- ED50 [4]: 153 mg/kg

Compound: CN1CCN(CC(=O)N2c3ccccc3C(=O)Nc3cccnc32)CC1 [PIRENZEPINE, pirenzepine, reference compound]
- ED50 [5, 10]: > 75 mg/kg
- ED50 [7, 11]: > 50 mg/kg
- ED50 [8, 12]: > 50 mg/kg
- protective activity (in words) [8]: inactive

Compound: CN/C(=N/CCSCc1nc[nH]c1C)NC#N [[…], cimetidine, reference compound]
- ED50 [5]: > 75 mg/kg
- ED50 [7]: > 50 mg/kg
- ED50 [8]: > 50 mg/kg
- protective activity (in words) [8]: inactive
